Measurements as given in paper PMC11062894, “Protein-based bandpass filters for controlling cellular signaling with chemical inputs” (Nature Chemical Biology, 2023).
Where “and” joins values, the source holds several entries; their conditions need not be identical. Equal entries are not always repeated.

Tested on: GEMS receptors with CBPA11 (BclXL–LD3 and BclXLhigh variants), STAT3-driven SEAP in HEK293T cells
Test: GEMS SEAP reporter assay, CBPA11 (BclXLhigh, LD3-v and BclXL-v variants) with A-1155463
Format: cell-based
Parameters: key to Raw data (SEAP) / SEAP, replicate values / Raw data of Figure 5b / Raw data Figure 5e / Raw data of Independent repeat of CBPA11-v1 vs CBPA11-v1-LD3v3 / Raw data of Independent repeat of CBPA11-v3 vs CBPA11-v3-LD3v3 / Raw data of Figure 5b, CBPA11-v1-LD3v3 (SEAP reporter raw value, single replicate) / Raw data of Figure 5b, CBPA11-v1 (SEAP reporter raw value, single replicate): SEAP activity in U/L in culture supernatant
Text: To rationally design a CBP responding to a chemical input, we used BclXL as the druglow receptor, LD3 as the designed binder and a designed BclXL variant as the drughigh receptor (referred to as BclXLhigh) to construct a CBP responsive to BclXL inhibitors (Fig. 4a). To design BclXLhigh, we used a multistate design computational protocol described elsewhere[26] […] Thus, BclXLhigh-v(1–3) were chosen as the functional drughigh receptors, resulting in three A-1155463-controlled CBPs (referred to as CBPA11-v(1–3)) (Fig. 4c–e).
HEK293T cells were seeded in a 96-well plate 24 h before transfection. The transfection mix in each well consisted of 3 ng of constitutive human CMV promoter driven mammalian STAT3 expression vector (PhCMV-STAT3-pA), 30 ng of STAT3-induced reporter expression (OStat3-PhCMVmin-SEAP-pA) and 50 ng of expression vectors for each GEMS receptor chain (PSV40-IgK-(drughigh receptor)-EpoRm-IL-6RBm-pA and PSV40-IgK-(druglow receptor-GGGGSX3-LD3)-EpoRm-IL-6RBm-pA). For the specific drughigh receptor and druglow receptor used in the different cellular assays, they are indicated as wild type or with mutations. Then, plasmid DNA was mixed with 50 μl opti-MEM (Thermo Fisher) and 600 ng of polyethyleneimine (Polysciences, catalog no. 24765-1). For drug treatment experiments, drugs were added 12 h post-transfection and incubated with cells for 24 h before the SEAP reporter detection assay.
SEAP activity (U l^−1) in cell culture supernatants was quantified by kinetic measurements at 405 nm (1 minute per measurement for 30 cycles) of absorbance increase due to phosphatase-mediated hydrolysis of para-nitrophenyl phosphate (pNPP).
Binding affinities of SPR drug competition assays were calculated using three-parameter nonlinear regression in GraphPad Prism (v.8.3.0). Representative data of cell assays are presented as individual values and mean values (bars). n = 3 refers to biological replicates. All IC50 or EC50 values of cell assays reported were calculated using four-parameter nonlinear regression ± s.d. Bandpass features of cutoff concentrations and Bandwidth90% were estimated based on the curve fitted using bell-shaped curve nonlinear regression in GraphPad Prism (v.8.3.0). […]
Supplementary Figure 4: Design, screening and validation of BclXLhigh variants. a) Screening of BclXLhigh variants in the GEMS platform. […]
Dissociation constant measurement of BclXLhigh-v(1-3) and LD3. Equilibrium curves are fitted using […]
BclXLhigh-v1 (purple), BclXLhigh-v2 (blue), […]
a) Bcl2high-based bandpass filter designs were developed and to respond to different concentrations of […]
corresponding inhibitor. c) Screening of Bcl2high-based bandpass filter variants in the GEMS platform.
The designed binder LD3 was fused to the druglow-receptor (PSV40-IgK-Bcl2-LD3-EpoRm-IL-6RBm-pA) in one EpoR chain and Bcl2high variants with the insensitive Bcl2 (iBcl2) as control in the other EpoR chain (PSV40-IgK-Bcl2high-EpoRm-IL-6RBm-pA). HEK293T cells were transfected with indicated […]
the mean of six biological replicates ± s.d., overlaid with a scatter dot plot of the original data points.
(1 picture or pasted object on this page, not shown here)
Supplementary Figure 6: Binding affinities and drug resistances of Bcl2high-v(2,4,5) assessed by […]
a) Measurement of dissociation constants for Bcl2high-v(2,4,5) and LD3 interactions. Equilibrium curves […]
Bcl2high-v(2,4,5) measured by SPR. 5 μM of Bcl2 or indicated variants were mixed with 10 μM of […]
Bcl2high-v2 (red), Bcl2high-v4
Supplementary Figure 7: Screening of LD3 variants in CBPA11-v(1-3) and raw data of CBPA11-v(1,3) with LD3-v3 variant. a-c) Screening of LD3 and LD3-v(1-3) variants in complex with BclXL for more sensitive CBPA11-v1 (a), CBPA11-v2 (b), CBPA11-v3 (c) in the GEMS platform. The LD3 variants replaced the role of LD3 (PSV40-IgK-BclXL-LD3-v(1-3)-EpoRm-IL-6RBm-pA) in one EpoR chain and BclXLhigh-v(1-3) in the other EpoR chain (PSV40-IgK-BclXLhigh-V(1-3)-EpoRm-IL-6RBm-pA). HEK293T cells were transfected with […]

[1] = CBPA11-v3-BclXLv2, A-1155463 10000 nM
[2] = CBPA11-v3-LD3v3, A-1155463 1 nM
[3] = CBPA11-v3-LD3v3, A-1155463 3.18 nM
[4] = CBPA11-v3-LD3v3, A-1155463 10 nM
[5] = CBPA11-v3-LD3v3, A-1155463 31.8 nM
[6] = CBPA11-v3-LD3v3, A-1155463 100 nM
[7] = CBPA11-v3-LD3v3, A-1155463 318 nM
[8] = CBPA11-v3-LD3v3, A-1155463 1000 nM
[9] = CBPA11-v3-LD3v3, A-1155463 3180 nM

## CN(C)CC#Cc1ccc(OCCCc2sc(N3CCc4cccc(C(=O)Nc5nc6ccccc6s5)c4C3)nc2C(=O)O)c(F)c1 [A-1155463]
CBPA11-v3, A-1155463 1000 nM
  Normalized data Figure 5e: 81.2661 and 84.4942 and 85.1885
  Normalized data of Figure 5b: 77.1257 and 88.7382 and 83.2133
  Raw data of Figure 5b: 414.242 and 467.209 and 437.572
  Raw data of Independent repeat of CBPA11-v3 vs CBPA11-v3-LD3v3: 429.812 and 444.52 and 449.13
CBPA11-v3, A-1155463 3160 nM
  Raw data of Independent repeat of CBPA11-v3 vs CBPA11-v3-LD3v3: 188.374 and 250.833 and 293.834
CBPA11-v3, A-1155463 3180 nM
  Normalized data Figure 5e: 35.6165 and 47.6783 and 55.7329
  Normalized data of Figure 5b: 69.9852 and 73.5971 and 71.687
  Raw data Figure 5e: 250.833 and 293.834
  Raw data of Figure 5b: 375.891 and 387.491 and 376.961
CBPA11-v3, A-1155463 10000 nM
  Normalized data of Figure 5b: 33.3676 and 35.0593 and 32.1412
  Raw data Figure 5e: 69.4522 and 75.5808 and 84.1281
  Raw data of Figure 5b: 179.218 and 184.588 and 169.013
CBPA11-v3-BclXLv2, A-1155463 1 nM
  Normalized data Figure 5e: 21.2301 and 20.9054 and 25.1683
CBPA11-v3-BclXLv2, A-1155463 3.18 nM
  Normalized data Figure 5e: 36.7849 and 34.3141 and 39.7967
CBPA11-v3-BclXLv2, A-1155463 10 nM
  Normalized data Figure 5e: 81.6336 and 75.0518 and 82.9089
CBPA11-v3-BclXLv2, A-1155463 31.8 nM
  Normalized data Figure 5e: 90.6446 and 90.5045 and 89.528
CBPA11-v3-BclXLv2, A-1155463 100 nM
  Normalized data Figure 5e: 100
CBPA11-v3-BclXLv2, A-1155463 318 nM
  Normalized data Figure 5e: 94.0748 and 83.4986 and 97.6461
CBPA11-v3-BclXLv2, A-1155463 1000 nM
  Normalized data Figure 5e: 82.1634 and 70.2925 and 84.8015
CBPA11-v3-BclXLv2, A-1155463 3180 nM
  Normalized data Figure 5e: 56.5379 and 50.558 and 54.1989
[1]
  Normalized data Figure 5e: 20.2076 and 19.0615 and 22.8054
  Raw data Figure 5e: 80.3813 and 74.5359 and 94.7265
CBPA11-v3-LD3v3, A-1155463 0.01 nM
  Raw data of Independent repeat of CBPA11-v3 vs CBPA11-v3-LD3v3: 22.6826 and 23.3953 and 23.1684
[2]
  Normalized data of Figure 5b: 18.3263 and 15.7809 and 17.6916
  Raw data of Figure 5b: 15.5654 and 14.7861 and 18.9282
  Raw data of Independent repeat of CBPA11-v3 vs CBPA11-v3-LD3v3: 39.675 and 38.1934 and 39.412
CBPA11-v3-LD3v3, A-1155463 3.16 nM
  Raw data of Independent repeat of CBPA11-v3 vs CBPA11-v3-LD3v3: 41.6393 and 41.4109 and 44.6799
[3]
  Normalized data of Figure 5b: 21.7199 and 21.0211 and 18.3728
  Raw data of Figure 5b: 18.4478 and 19.6959 and 19.6571
[4]
  Normalized data of Figure 5b: 42.8939 and 42.6676 and 37.1804
  Raw data of Figure 5b: 36.4319 and 39.9778 and 39.7793
  Raw data of Independent repeat of CBPA11-v3 vs CBPA11-v3-LD3v3: 121.488 and 115.434 and 117.733
CBPA11-v3-LD3v3, A-1155463 31.6 nM
  Raw data of Independent repeat of CBPA11-v3 vs CBPA11-v3-LD3v3: 175.057 and 186.814 and 198.727
[5]
  Normalized data of Figure 5b: 100 and 85.1231 and 93.5368
  Raw data of Figure 5b: 84.9348 and 79.7569 and 100.075
[6]
  Normalized data of Figure 5b: 98.4645 and 100
  Raw data of Figure 5b: 83.6306
  Raw data of Independent repeat of CBPA11-v3 vs CBPA11-v3-LD3v3: 212.624 and 240.137 and 273.777
CBPA11-v3-LD3v3, A-1155463 316 nM
  Raw data of Independent repeat of CBPA11-v3 vs CBPA11-v3-LD3v3: 197.006 and 197.385 and 185.58
[7]
  Normalized data of Figure 5b: 66.0363 and 74.9346 and 74.5506
  Raw data of Figure 5b: 56.0878 and 70.2108 and 79.7618
[8]
  Normalized data of Figure 5b: 44.7107 and 39.495 and 38.775
  Raw data of Figure 5b: 37.975 and 37.0053 and 41.4854
  Raw data of Independent repeat of CBPA11-v3 vs CBPA11-v3-LD3v3: 89.9783 and 83.2851 and 69.3694
CBPA11-v3-LD3v3, A-1155463 3160 nM
  Raw data of Independent repeat of CBPA11-v3 vs CBPA11-v3-LD3v3: 42.2434 and 33.2038 and 38.7983
[9]
  Normalized data of Figure 5b: 16.4914 and 15.345 and 15.1706
  Raw data of Figure 5b: 14.007 and 14.3777 and 16.2311
